The record followed here is US20090221594A1, “STABLE PHARMACEUTICAL COMPOSITIONS OF 5, 10 METHYLENETRAHYDROFOLATE” (priority 2005, published 2009).

Assay type in all cases: physicochemical
The nature of data set [1]: Solubility of 5,10-MTHF in water. The method, then:
(§1) 10 ml sterile water was added to the reference formulation lyophile of 5,10-MTHF and to each of the test formulation lyophiles to give a final concentration of 10 mg/ml (this dissolution volume and concentration corresponds to the most current recommended clinical use guidelines for 5,10-MTHF for cancer therapy). The nonformulated 5,10-MTHF was dissolved in water to a concentration of 6 mg/ml. The lower concentration of nonformulated 5,10-MTHF was due to the fact that nonformulated 5,10-MTHF has a maximum solubility in water of approximately 6 mg/ml (when dissolved in a trisodium citrate, 5,10-MTHF has a much higher (>10 mg/ml) solubility). Samples were stored at room temperature under ambient air conditions to mimic as close as possible expected real-world use.

Data set [2] can be described thus: pH time course following dissolution in water. The following applies: for pH following dissolution in water: room temperature, ambient air. The method, then: as §1
The pH of 5,10-MTHF dissolved in water was measured at multiple time points using a digital pH meter.

The nature of data set [3]: 5,10-MTHF stability following dissolution in water by HPLC. As to conditions: for % Normalized Purity of 5,10-MTHF: room temperature. The method, then: as §1
The stability of 5,10-MTHF dissolved in water was measured by HPLC. Data is reported as the normalized purity of 5,10-MTHF based on the starting purity according to the following formula: % Normalized Purity=(% 5,10-MTHF Time X)÷(% 5,10-MTHF Time 0)×(100)
5,10-MTHF stability kinetics were estimated by linear regression analysis (GraphPad Prism software).

The structures appear in SMILES notation.

For `Nc1nc2c(c(=O)[nH]1)N1CN(c3ccc(C(=O)N[C@@H](CCC(=O)O)C(=O)O)cc3)CC1CN2` (some centres unmarked) [Nonformulated, 5,10-methylenetetrahydrofolate], in data set [1] (dissolved in a trisodium citrate), the “solubility when dissolved in trisodium citrate” value was greater than 10000 µg/mL. Moreover, the “maximum solubility in water” value in data set [1] (nonformulated, water) is recorded as “approximately 6 mg/ml”. Further, the “pH following dissolution in water” value came to 6.88 in data set [2] (0 hours); 6.89 in data set [2] (0.25 hours); 6.87 in data set [2] (0.5 hours); 6.85 in data set [2] (0.75 hours); 6.83 in data set [2] (1 hour); 6.77 in data set [2] (2 hours). Further, the “pH following dissolution in water” value amounted to 6.80 in data set [2] (4 hours), 6.83 in data set [2] (6 hours), 6.81 in data set [2] (8 hours) and 6.79 in data set [2] (24 hours). The “pH following dissolution in water (approximate, text summary)” value in data set [2] (starting and steady state pH over 24 hours) is roughly 6.9. Moreover, the “% Normalized Purity of 5,10-MTHF” value in data set [3] (0 hours after dissolution in water) is given as 100.0%; in data set [3] (0.5 hours after dissolution in water), 94.9%; in data set [3] (1 hour after dissolution in water), 92.4%; in data set [3] (2 hours after dissolution in water) it was 90.3%; in data set [3] (4 hours after dissolution in water), 85.9%; in data set [3] (8 hours after dissolution in water), 77.8%. The results for the “% Normalized Purity of 5,10-MTHF” value in data set [3] (12 hours after dissolution in water), in data set [3] (18 hours after dissolution in water) and in data set [3] (24 hours after dissolution in water) were 69.6%, 55.1% and 44.9%, respectively. Moreover, the “Linear Regression Degradation Rate Following Dissolution in Water” value in data set [3] (slope of best-fit line, 0-24 hours) is recorded as −2.2 % Purity/Hours.
